Assay results as given in publication PMC9906756 (2023).

Key:
Assay in all cases: luminescence titration
[1] = tested on: Pu24T (DNA, G4) TGAGGGTGGTGAGGGTGGGGAAGG; conditions: 100 mM KCl, 10 mM potassium phosphate; pH 7; 10 μM Ru-PDC3; per G4 strand; site size 0.5
[2] = tested on: T13 (DNA, single strand) TTTTTTTTTTTTT; conditions: 100 mM KCl, 10 mM potassium phosphate, pH 7, 10 μM Ru-PDC3, per base, site size 1, Table S2 prints error 0.6
[3] = tested on: ss17 (DNA, single strand) CCAGTTCGTAGTAACCC; conditions: 100 mM KCl, 10 mM potassium phosphate, pH 7, 10 μM Ru-PDC3, per base, site size 1
[4] = tested on: K-ras (DNA, G4) AGGGCGGTGTGGGATAGGGAA; conditions: 100 mM KCl, 10 mM potassium phosphate; pH 7; 10 μM Ru-PDC3; per G4 strand; site size 0.5
[5] = tested on: ds17 (DNA, duplex) CCAGTTCGTAGTAACCC/GGGTTACTACGAACTGG; conditions: 100 mM KCl, 10 mM potassium phosphate, pH 7, 10 μM Ru-PDC3, per base pair, site size 1
[6] = tested on: 22AG (DNA, G4) AGGGTTAGGGTTAGGGTTAGGG; conditions: 100 mM KCl, 10 mM potassium phosphate; pH 7; 10 μM Ru-PDC3; per G4 strand; site size 0.5
INTER (DNA, G4) TAGGGTTA = conditions: 100 mM KCl, 10 mM potassium phosphate; pH 7; 10 μM Ru-PDC3; concentration as G4 strand equivalent; site size 0.5
[7] = tested on: A13 (DNA, single strand) AAAAAAAAAAAAA; conditions: 100 mM KCl, 10 mM potassium phosphate, pH 7, 10 μM Ru-PDC3, per base, site size 0.5, Table S2 prints 2.3±1.2 × 10^6
[8] = tested on: TBA (DNA, G4) GGTTGGTGTGGTTGG; conditions: 100 mM KCl, 10 mM potassium phosphate; pH 7; 10 μM Ru-PDC3; per G4 strand; site size 0.5

Kb [1]: 2.6 ± 0.1 × 10^6 M^-1
Kb [2]: 1.4 ± 0.5 × 10^6 M^-1
Kb [3]: 1.3 ± 0.4 × 10^6 M^-1
Kb [4]: 1.4 ± 0.1 × 10^7 M^-1
Kb [5]: 1.9 ± 0.3 × 10^6 M^-1
Kb [6]: 2.2 ± 0.7 × 10^7 M^-1
Kb (INTER (DNA, G4) TAGGGTTA): 1.4 ± 0.2 × 10^7 M^-1
Kb [7]: 2.2 ± 1.3 × 10^6 M^-1
Kb [8]: 5.6 ± 1.7 × 10^6 M^-1
Compound: C[n+]1cc(NC(=O)c2ccc3c(n2)c2nc(C(=O)Nc4cc5ccccc5[n+](C)c4)ccc2c2nc4c5cccnc5c5ncccc5c4nc32)cc2ccccc21.[Ru+2].c1cnc2c(c1)ccc1cccnc12.c1cnc2c(c1)ccc1cccnc12
